Experimental data as given in patent US20240252456A1, “ORAL COMPOSITION, SKIN COSMETIC AND HAIR COSMETIC” (MARUZEN PHARMACEUTICALS CO., LTD., priority 2021, published 2024).

Legend:
[1] = tested on: OCLN mRNA; experiment: Occludin (OCLN) mRNA expression promotive action test; assay type: cell-based, human; conditions: NHEK, 24 hours, corrected with GAPDH
Experimental: Normal human neonatal epidermal keratinocytes (NHEK) were precultured using normal human epidermal keratinocyte growth medium (KGM), and the cells were collected by a trypsin treatment. The collected cells were diluted with KGM to a cell density of 15×10^4 cells/mL, then seeded with 2 mL portions in a 6-well plate (30×10^4 cells/well), and cultured overnight under conditions of 37° C. and 5% CO2. After culturing, the medium was replaced with normal human epidermal keratinocyte basal medium (KBM, the above KGM without addition of growth additives (hEGF, BPE, insulin, antibacterial agents, hydrocortisone)), and culturing was further performed for 24 hours.
After culturing for 24 hours, the medium was removed, and 2 mL of each of test samples (Samples 1 and 3, see Table 20 below for final concentrations) dissolved in KBM was added to each well, and culturing was performed under conditions of 37° C. and 5% CO2 for 24 hours. As a control, culturing was performed in the same manner using KBM to which no sample was added. After culturing, the medium was removed, total RNA was extracted using ISOGEN II (available from NIPPON GENE CO., LTD.), each RNA amount was measured using a spectrophotometer, and the total RNA was prepared so as to be 150 ng/μL.
For OCLN and GAPDH as an internal standard, the expression levels of mRNA were measured using the above total RNA as a template. Detection was performed through a two-step real-time RT-PCR reaction using a real-time PCR device, Thermal Cycler Dice Real Time System III (available from Takara Bio Inc.), with PrimeScript™ RT Master Mix (Perfect Real Time) (available from Takara Bio Inc.) and TB Green® Fast qPCR Mix (available from Takara Bio Inc.). Primers available from Takara Bio Inc. were used. The expression level of OCLN mRNA was obtained as a value corrected with a value of GAPDH based on total RNA preparations prepared from cells cultured “with test sample addition” and “without sample addition.” From the obtained values, the OCLN mRNA expression promotion rate (%) was calculated using the following equation. […]

[2] = tested on: Normal human dermal fibroblasts (NB1RGB); experiment: Glutathione production promotive action test (dermal fibroblasts); assay type: cell-based; conditions: 24 hours
Experimental: Normal human dermal fibroblasts (NB1RGB) were cultured using α-modified Eagle's minimum essential medium (α-MEM) containing 10% FBS, and then the cells were collected by a trypsin treatment. The collected cells were diluted with α-MEM containing 10% FBS to a cell density of 2.0×10^5 cells/mL, then seeded with 200 μL per well in a 48-well plate, and cultured for 48 hours.
After culturing, the medium was removed, 200 μL of each of test samples (Samples 1 to 3, see Table 14 below for final concentrations) dissolved in Dulbecco's modified Eagle's medium (DMEM) containing 1% FBS was added to each well, and culturing was further performed for 24 hours. As a control, culturing was performed in the same manner using DMEM containing 1% FBS to which no test sample was added. After the culturing was completed, the medium was removed from each well, and the cells were washed with 400 μL of PBS(−) buffer solution and then lysed using 150 μL of M-PER (available from PIERCE).
Quantitative determination of total glutathione was performed using 100 μL of the lysed cells. That is, 100 μL of lysed cell extract, 50 μL of 0.1 mol/L phosphate buffer solution, 25 μL of 2 mmol/L NADPH, and 25 μL of 3.2 unit/mL glutathione reductase were added to a 96-well plate and heated at 37° C. for 10 minutes, then 25 μL of 10 mmol/L 5,5′-dithiobis(2-nitrobenzoic acid) was added, and the absorbance at a wavelength of 412 nm was measured until 5 minutes later to determine ΔOD/min. The total glutathione concentration was calculated based on a calibration curve created using oxidized glutathione (available from FUJIFILM Wako Pure Chemical Corporation). After correcting the obtained value to the glutathione value per total protein amount, the glutathione production promotion rate (%) was calculated using the following equation.
Terms in the equation represent the following respective ones. • A: Glutathione amount per total protein amount without sample addition • B: Glutathione amount per total protein amount with test sample addition

[3] = tested on: AGEs; experiment: Advanced glycation end product (AGEs) formation suppressive action test; conditions: type I collagen-coated plate, 0.2M D(−)-ribose, 37° C., 20 days
Experimental: In a 96-well type I collagen-coated plate (available from AGC Inc.), 100 μL of a mixed solution of 0.2M D(−)-ribose prepared with PBS(−) buffer solution and each of test samples (Samples 1 and 2, see Table 22 below for final concentrations) were added and statically placed at 37° C. for 20 days to form AGEs. In addition, PBS(−) buffer solution only as a negative control and a 0.2M D(−)-ribose solution prepared with PBS(−) buffer solution as a positive control were statically placed in the same manner. After 20 days, the amount of AGEs was measured by the ELISA method using an anti-AGEs antibody (available from TPANS GENIC INC.), and the AGEs formation suppressive action was evaluated. From the obtained results, the AGEs formation suppression rate (%) was calculated using the following equation.
Terms in the equation represent the following respective ones. • A: Absorbance at wavelength 405 nm in negative control • B: Absorbance at wavelength 405 nm in positive control • C: Absorbance at wavelength 405 nm with test sample addition

[4] = tested on: Normal human neonatal epidermal keratinocytes (NHEK); experiment: ATP production promotive action test (epidermal keratinocytes); assay type: cell-based; conditions: 2 hours
Experimental: Normal human neonatal epidermal keratinocytes (NHEK) were cultured using normal human epidermal keratinocyte growth medium (KGM), and then the cells were collected by a trypsin treatment. The collected cells were diluted with KGM to a cell density of 2.0×10^5 cells/mL, then seeded with 100 μL per well on a collagen-coated 96-well plate, and cultured overnight. After the culturing was completed, the medium was removed, and 100 μL of KGM to which each of test samples (Samples 1 and 2, see Table 13 below for final concentrations) was added was added to each well, and culturing was performed for 2 hours. As a control, culturing was performed in the same manner using KGM to which no sample was added.
The ATP production promotive action was determined by measuring the amount of ATP in cells using the firefly luciferase luminescence method. […] After the reaction, the amount of chemiluminescence proportional to the amount of intracellular ATP was measured using a chemiluminescence measurement device (available from Thermo Fisher Scientific, product name: Varioskan LUX multimode microplate reader). From the obtained results, the ATP production promotion rate (%) was calculated using the following equation. […]

Row | SMILES | OCLN mRNA expression promotion rate ([1]; 25 μmol/L) | OCLN mRNA expression promotion rate ([1]; 100 μmol/L) | Glutathione production promotion rate ([2]; 62.5 μmol/L) | AGEs formation suppression rate ([3]; 125 μmol/L) | AGEs formation suppression rate ([3]; 500 μmol/L) | AGEs formation suppression rate ([3]; 2000 μmol/L) | ATP production promotion rate ([4]; 6.25 μmol/L) | Glutathione production promotion rate ([2]; 1000 μmol/L) | ATP production promotion rate ([4]; 25 μmol/L)
1 | O=C(O)CCc1ccc(O)c(O)c1 [Sample 1, 3,4-Dihydroxyhydrocinnamic acid] | 209.9% | 557.3% | 125.8% | 45.7% | 69.4% | 78.4% | 106.7% | – | –
2 | O=C(O)CCc1ccc(O)cc1 [Sample 2, 3-(4-Hydroxyphenyl)propionic acid] | – | – | – | – | – | 13.3% | – | 131.7% | 112.4%
3 | O=C(O)CCc1ccccc1 [Sample 3, 3-phenylpropionic acid] | 141.5% | – | – | – | – | – | – | 129.9% | –
